Read-outs that look alike come from different tables or passages of the source.
Columns and labels:
[1] = biological target: muscarinic receptors; type: binding; details: rat cortex, [3H]QNB; average of three determinations
[2] = biological target: T1, DA-3 receptors (Rattus norvegicus, UniProt P19020); assay: [3H]-7-OH-DPAT binding to DA-3 receptors (rat olfactory tubercle); details: for Ki: [3H]-7-OH-DPAT, average ± standard error
T1 construct: olfactory tubercle for DA-3 receptors; from tissue; host or cells: rat olfactory tubercle membranes
T1 sequence (P19020 whole entry): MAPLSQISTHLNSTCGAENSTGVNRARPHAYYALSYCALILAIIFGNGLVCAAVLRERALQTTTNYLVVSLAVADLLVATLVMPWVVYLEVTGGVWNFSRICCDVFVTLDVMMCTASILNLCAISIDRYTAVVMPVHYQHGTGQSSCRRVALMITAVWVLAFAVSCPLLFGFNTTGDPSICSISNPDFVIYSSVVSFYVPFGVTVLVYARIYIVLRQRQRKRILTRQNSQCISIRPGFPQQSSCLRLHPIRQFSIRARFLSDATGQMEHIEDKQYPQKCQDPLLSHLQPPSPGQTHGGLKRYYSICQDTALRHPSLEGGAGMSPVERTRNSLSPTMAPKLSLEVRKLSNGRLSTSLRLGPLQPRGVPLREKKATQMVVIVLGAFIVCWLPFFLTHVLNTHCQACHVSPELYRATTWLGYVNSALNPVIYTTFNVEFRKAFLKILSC

[3] = test system: catalepsy in rats; details: male, Wistar, rat, in vivo, sc
[4] = biological target: T2, DA-1 receptors (Rattus norvegicus, UniProt P18901); assay: [3H]SCH 23390 binding to DA-1 receptors (rat striatum); details: for Ki: [3H]SCH 23390, average ± standard error, read-out: D1 affinity Ki
T2 construct: striatum for DA-1 and DA-2 receptors; from tissue; host or cells: rat striatum membranes
T2 sequence (P18901 whole entry): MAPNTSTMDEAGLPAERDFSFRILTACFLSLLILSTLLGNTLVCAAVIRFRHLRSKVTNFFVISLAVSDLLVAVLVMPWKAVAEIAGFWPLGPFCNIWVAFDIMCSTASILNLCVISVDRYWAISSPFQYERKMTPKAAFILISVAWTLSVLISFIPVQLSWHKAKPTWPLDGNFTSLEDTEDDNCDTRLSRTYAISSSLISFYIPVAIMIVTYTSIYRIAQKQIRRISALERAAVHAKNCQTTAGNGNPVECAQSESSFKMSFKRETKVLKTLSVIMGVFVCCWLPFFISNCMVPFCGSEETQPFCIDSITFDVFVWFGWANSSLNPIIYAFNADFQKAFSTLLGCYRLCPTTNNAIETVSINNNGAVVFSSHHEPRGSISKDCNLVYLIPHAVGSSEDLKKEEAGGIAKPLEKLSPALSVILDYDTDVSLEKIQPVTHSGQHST

[5] = test system: 5-MeO-DMT-induced head twitches in mouse; assay: Antagonism of 5-MeO-DMT-induced head twitches in mouse; type: in vivo; details: s.c., 30 min before 5-MeO-DMT 10 mg/Kg s.c.
[6] = biological target: T3, DA-2 receptors (Rattus norvegicus, UniProt P61169); assay: [3H]Spiperone binding to DA-2 receptors (rat striatum); details: stereoselectivity between enantiomers
T3 construct: striatum for DA-1 and DA-2 receptors; from tissue; host or cells: rat striatum membranes
T3 sequence (P61169 whole entry): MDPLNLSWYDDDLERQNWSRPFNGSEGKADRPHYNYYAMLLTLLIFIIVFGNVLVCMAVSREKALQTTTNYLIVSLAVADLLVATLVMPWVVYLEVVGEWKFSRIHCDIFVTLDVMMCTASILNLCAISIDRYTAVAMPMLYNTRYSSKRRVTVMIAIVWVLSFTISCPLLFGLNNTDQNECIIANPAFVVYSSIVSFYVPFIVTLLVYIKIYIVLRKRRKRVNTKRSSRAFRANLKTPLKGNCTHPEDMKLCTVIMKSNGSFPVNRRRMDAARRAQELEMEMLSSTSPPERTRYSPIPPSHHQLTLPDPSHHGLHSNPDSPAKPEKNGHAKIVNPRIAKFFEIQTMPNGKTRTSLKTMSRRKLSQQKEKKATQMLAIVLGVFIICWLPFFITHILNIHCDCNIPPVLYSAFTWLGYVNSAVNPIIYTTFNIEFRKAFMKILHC

Row | Compound | Ki [1] [nM] | Ki ([2]; D3 affinity Ki) [nM] | Time in minutes of insurgence of catalepsy in 100% of the animals [3] [min] | D1 pKi [4] | Ki [4] [nM] | D3 pKi [2] | Ki ([2]; read-out: D3 affinity Ki) [nM] | Dosage that determines 50% of the Head-twitching inhibition induced by 5-MeO-DMT [5] [mg/kg] | Times less affinity for the D2 receptor than the opposite enantiomer [6]
1 | CN1CCN(C2Cn3cccc3Sc3ccc(Cl)cc32)CC1 (single isomer, unassigned; (+)) [ST1460, (+)-7-chloro-9-(4-methylpiperazin-1-yl)-9,10-dihydropyrrolo[2,1-b][1,3]benzothiazepine] | 286 | – | – | – | – | – | – | – | –
2 | CN1CCN([C@H]2Cc3ccccc3Sc3ccc(Cl)cc32)CC1 [S-(+)-Octoclothepin] | 749 | 0.75 | 300 | 8.71 | 1.97 ± 0.53 | – | – | – | –
3 | CN1CCN(C2Cn3cccc3Sc3ccc(Cl)cc32)CC1 (single isomer, unassigned) [ST1461] | 514 | – | – | – | – | – | – | – | –
4 | CN1CCN([C@@H]2Cc3ccccc3Sc3ccc(Cl)cc32)CC1 [R-(−)-Octoclothepin] | 155 | – | 120 | 8.69 | 2.02 ± 0.17 | 7.68 | 20.9 | 0.089 | approximately 10 times
5 | CN1CCN(C2Cn3cccc3Sc3ccc(F)cc32)CC1 (racemic) [ST1456, (±)-7-fluoro-9-(4-methylpiperazin-1-yl)-9,10-dihydropyrrolo[2,1-b][1,3]benzothiazepine] | 2220 | – | – | – | – | – | – | – | –
6 | CN1CCN(C2Cn3cccc3Sc3ccc(Cl)cc32)CC1 (racemic) [ST1455, (±)-7-chloro-9-(4-methylpiperazin-1-yl)-9,10-dihydropyrrolo[2,1-b][1,3]benzothiazepine] | 418 | – | – | – | – | – | – | – | –
7 | CN1CCN(C2Cc3ccccc3Sc3ccc(Cl)cc32)CC1 (centres unmarked) [RS-Octoclothepin, 8-chloro-10-(4-methylpiperazino)-10,11-dihydrodibenzo[b,f]thiepin] | 434 | – | 120 | 8.64 | 2.28 ± 0.15 | 8.62 | 2.38 | – | –

From patent US6391870B2, “Pyrrolo [2,1-b][1,3]benzothiazepines with atypical antipsychotic activity” (Sigma-Tau Industrie Farmaceutiche Riunite S.p.A., priority 1998, dated 2002)
